A word on the IC50: it is the point on the concentration scale where inhibition reaches its midpoint. By AUC(0-t) is commonly meant the area under the concentration-time curve up to a stated or last time point. The low end stands for low exposure, the high end for high exposure. In general, half-life refers to the time in which the quantity being followed falls by half.

This note sets out measurements from patent US20250122191A1, “COMPOUNDS AS BCL-2 INHIBITORS” (Fochon Biosciences, Ltd, priority 2021, published 2025).

The subject of data set [1] is Toledo cells. Put plainly: Cell proliferation assay (MTS), Toledo cells. The class given is cell-based. The conditions noted are these: Homo sapiens, 72 h. A digest of the protocol: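 Toledo cells (RPMI-1640, 10% FBS) seeded at 30000 cells/well, rested 4 h, then exposed 72 h at 37 °C, 5% CO2 to compound at nine final concentrations, 1.5–10000 nM. Viability by MTS (2 h), absorbance at 490 nm. IC50 from the concentration-response.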

The test system of data set [2] is RS4;11-BCL-2 G101V cells. Put plainly: Cell proliferation assay (MTS), RS4;11-BCL-2 G101V engineered cells. The conditions noted are these: Homo sapiens, 120 h, read-out: RS4, 11 BCL2-G101V IC50. The class given is cell-based. The essentials: (§1)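 Proliferation IC50 in RS4;11 lines engineered with BCL-2 mutations, measured by MTS at 490 nm after 72 h (D103E, D103Y) or 120 h (G101V, F104L) compound treatment at 37 °C.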

Data set [3] deals with RS4;11-BCL-2 F104L cells. As to the kind of experiment: Cell proliferation assay (MTS), RS4;11-BCL-2 F104L engineered cells. The class given is cell-based. The conditions noted are these: Homo sapiens, 120 h, read-out: RS4, 11 BCL2-F104L IC50. The essentials:
as §1

Data set [4] relates to RS4;11-BCL-2 D103E cells. As to the kind of experiment: Cell proliferation assay (MTS), RS4;11-BCL-2 D103E engineered cells. Format: cell-based. The conditions noted are these: Homo sapiens, 72 h, read-out: RS4, 11 BCL2-D103E IC50. A digest of the protocol: as §1
The subject of data set [5] is RS4;11-BCL-2 D103Y cells. Put plainly: Cell proliferation assay (MTS), RS4;11-BCL-2 D103Y engineered cells. Format: cell-based. The conditions noted are these: Homo sapiens, 72 h, read-out: RS4, 11 BCL2-D103Y IC50. The source says: MTS testing kit was purchased from Promega (Madison, WI, USA). The RPMI-1640, Fetal bovine serum and Penicillin-Streptomycin were purchased from BI (Biological Industries, Beit Haemek, Israel). Puromycin was purchased from Beyotime (shanghai, China). Dimethyl sulfoxide (DMSO) was purchased from Sigma (St. Louis., MO, USA). RS4;11-BCL-2 G101V (Cobioer Lot. #: CBD2021063013P4), RS4;11-BCL-2 D103E (Cobioer Lot. #: CBD2021063013P4), RS4;11-BCL-2 D103Y (Cobioer Lot. #: CBD2022012101P4) and RS4;11-BCL-2 F104L (Cobioer Lot. #: CBD2021063014P4) cells were cultured in RPMI1640 supplemented with 1 ug/mL puromycin, 100 U/mL Penicillin-Streptomycin and 10% FBS.
To investigate whether a compound is able to inhibit the activity of BCL-2 mutation in cells, a mechanism-based assay using engineered cell lines stably overexpressing BCL-2 mutation (RS4;11-BCL-2 G101V, RS4;11-BCL-2 D103E, RS4;11-BCL-2 D103Y, and RS4;11-BCL-2 F104L) was developed. In this assay, the inhibition of BCL-2 mutation was reflected by the inhibition of cell proliferation of engineered RS4;11 cells. Cells were plated into 96-well plates at optimized cell density (RS4;11-BCL-2 G101V: 5000 cells/well; RS4;11-BCL-2 D103E: 7500 cells/well; RS4;11-BCL-2 D103Y: 7500 cells/well; RS4;11-BCL-2 F104L: 5000 cells/well). Plates were incubated at 37° C., with 5% CO2 for 4 h (RS4;11-BCL-2 G101V, RS4;11-BCL-2 F104L) and 24 h (RS4;11-BCL-2 D103E, RS4;11-BCL-2 D103Y), respectively. Compounds were serially diluted and added to the plates with the final concentrations of 10000, 3333.3, 1111.1, 370.4, 123.5, 41.2, 13.7, 4.6 and 1.5 nM. Plates were incubated at 37° C., with 5% CO2 for 120 h (RS4; 11-BCL-2 G101V, RS4; 11-BCL-2 F104L) and 72 h (RS4;11-BCL-2 D103E, RS4;11-BCL-2 D103Y), respectively. 20 μl MTS was added into each well and the plates were incubated at 37° C., with 5% CO2 exactly for 2 h. The absorbance was measured by a microplate reader at 490 nm. IC50 values were calculated using GraphPad Prism 8.0 software.

A short description of data set [6]: Pharmacokinetics assay in rats. Format: in vivo. The conditions noted are these: rat, male Sprague-Dawley rats, po, 5 mg/kg, plasma. How it is done:
The purpose of this study was to determine the pharmacokinetics of Examples in male Sprague-Dawley rats (Supplied by Beijing Vital River Laboratory Animal Technology Co., Ltd.) following a single intravenous bolus injection at 1 mg/kg and oral gavage (PO) administration at 5 mg/kg.
Animals in Group 1 were administered with Examples by single intravenous bolus injection at 1 mg/kg, which was formulated in 10% DMSO (Sigma, Batch #LPCOS181): 60% PEG400 (Sigma, Batch #MKCH6281): 30% water, pH 5-6 at 1 mg/mL as a solution. Animals in Group 2 were administered with Examples by single oral gavage (PO) administration at 5 mg/kg, which was formulated in 10% DMSO (Sigma, Batch #BCCD6641): 60% PEG400 (Sigma, Batch #MKCL4921): 30% water at 1 mg/mL as a solution. Blood samples were collected at 0.083, 0.25, 0.5, 1, 2, 4, 8, 12 and 24 hours post-dose. Concentrations of Examples in plasma were determined by LC/MS/MS (LC: Waters UPLC; MS: Triple Quad 6500 plus).

As for `COc1nc2[nH]cc(F)c2cc1Oc1cc(N2CCC3(CC2)CC(N2CCN(Cc4ccc(OC(F)F)cc4)C[C@H]2c2ccccc2C(C)C)C3)ccc1C(=O)NS(=O)(=O)c1cnc(NC[C@H]2CC[C@](C)(O)CC2)c([N+](=O)[O-])c1` [Example 344, 4-(2-((R)-4-(4-(difluoromethoxy)benzyl)-2-(2-isopropylphenyl)piperazin-1-yl)-7-azaspiro[3.5]nonan-7-yl)-2-((3-fluoro-6-methoxy-1H-pyrrolo[2,3-b]pyridin-5-yl)oxy)-N-((6-((((1r,4r)-4-hydroxy-4-methylcyclohexyl)methyl)amino)-5-nitropyridin-3-yl)sulfonyl)benzamide], the IC50 in data set [1] worked out at 1 nM; in data set [2], 1 nM; in data set [3] it was 1 nM; in data set [4] it was 1 nM; in data set [5], 10 nM. The same compound yielded an AUC(0-t) in data set [6] of 5910 ng·h/mL. In addition, in data set [6], the half-life is 1730 min. The Cmax in data set [6] (read-out: Cmax/C0) came to 406 ng/mL.
